# Measurements published in article PMC4305367 (Cancer Chemotherapy and Pharmacology, 2014).
# Entries after “also recorded” stand apart in the source; their conditions may differ.
# Key:
# [1] = male, human, in vivo, 24 h
# [2] = tested on: castration-resistant prostate cancer; assay: Objective disease response (General Rule for Prostate Cancer; modified RECIST 1.0); format: in vivo, human
# Method: (§1) The efficacy endpoints were serum PSA levels, PSA response rates based on the Prostate Cancer Clinical Trials Working Group (PCWG) 2 criteria, and objective disease response rates based on the General Rule for Clinical and Pathological Studies on Prostate Cancer and modified RECIST version 1.0. PSA levels were measured on Days 1 and 15 in Cycle 1, on Day 1 of Cycle 2 and each subsequent cycle. Tumor assessments were performed on Day 29, 85, and every 12-week cycle for subsequent cycles.
# [3] = clinical; conditions: human, in vivo; for AUC(0-t): AUC0–8h; for Cmax: C max
# [4] = tested on: prostate-specific antigen (PSA); assay: Serum PSA levels and PSA response (PCWG2 criteria); format: in vivo, human; conditions: during the study; 15 patients
# Method: as §1
# [5] = tested on: Japanese patients with castration-resistant prostate cancer; assay: Phase 1 safety assessment: adverse events (NCI-CTCAE v3.0), DLT, laboratory profiles, ECG; format: in vivo, human
# Description: The propriety of transitions to subsequent dose cohort was judged on the basis of the number of patients with dose-limiting toxicities (DLTs) during Cycle 1 (28 days). […] Patients could continue study treatment until criteria for treatment discontinuation were met. The use of aldosterone antagonists (e.g., eplerenone) was allowed for patients with clinical symptoms of mineralocorticoid excess such as hypertension, hypokalemia, and edema.
# Safety assessments included the evaluation of adverse events (AEs), laboratory profiles, physical examination, and vital signs throughout the study. AEs were graded using National Cancer Institute Common Terminology Criteria for Adverse Events (NCI-CTCAE) v3.0. Analysis of serum amylase and lipase was added to the clinical laboratory tests before enrollment of patients into the 400-mg BID plus prednisolone cohort because pancreatitis was reported during the study. A safety follow-up was performed for 28 days after the final dose of the study treatment. During Cycle 1 (28 days), DLT was also evaluated. DLTs were defined as any drug-related AE of ≥ Grade 3 and pre-specified cardiac-related AEs of lower grade. Hypertension, hypokalemia, and edema attributed to increased ACTH secretion maintained at Grade 2 or lower through the use of eplerenone were not considered DLTs.
# [6] = tested on: serum androgen levels; conditions: monkeys; cited from earlier work
# [7] = tested on: dehydroepiandrosterone sulfate (DHEA-S); assay: Pharmacodynamics: serum DHEA-S; format: in vivo, human; conditions: for Serum DHEA-S: mean (SD), LLOQ 2.0
# Method: (§2) Endocrine parameters such as serum testosterone and dehydroepiandrosterone sulfate (DHEA-S) were measured for PD analysis. The blood sample were collected on Days 1, 8, 15, and 22 of Cycle 1 and then on Day 1 of each subsequent 28-day cycle. Assay procedure for testosterone was improved during the study, and the lower limit of quantification (LLOQ) for testosterone changed from 0.05 to 0.03 ng/mL.
# [8] = tested on: serum testosterone; assay: Pharmacodynamics: serum testosterone; format: in vivo, human; conditions: for Serum testosterone: mean (SD), LLOQ 0.05 or 0.03
# Method: as §2
# [9] = General Rule for Clinical and Pathological Studies on Prostate Cancer, 15 patients
structure (smiles),measurement,setting,value
CNC(=O)c1ccc2cc([C@@]3(O)CCn4cncc43)ccc2c1 [Orteronel],Fractional urinary excretion rate,[1],36 to 47 % of the dose
same,Objective response rate (CR + PR),"[2]; General Rule for Clinical and Pathological Studies on Prostate Cancer, 5/15 patients",33%
same,Best response of complete response (CR),[2]; [9],no patient had a best response of complete response (CR)
same,Patients with best response of partial response (PR),[2]; [9],five
same,Best response by modified RECIST version 1.0,[2]; only six patients had measurable disease,No patient had a best response of CR or PR
same,AUC(0-t),[3]; 300 mg,14500 ng·h/mL
same,AUC(0-t),[3]; 400 mg,28600 ng·h/mL
same,"Time to C max (T max), range over cohorts",[3]; male,1 to 3 h
same,Tmax,"[3]; male, 200 mg",1 h
same,AUC(0-t),"[3]; male, 200 mg",7640 ng·h/mL
same,Cmax,"[3]; male, 200 mg",1580 ng/mL
same,Tmax,"[3]; male, 300 mg",3 h
same,Cmax,"[3]; male, 300 mg",3100 ng/mL
same,Tmax,"[3]; male, 400 mg",2.97 h
same,Cmax,"[3]; male, 400 mg",4700 ng/mL
same,Overall median maximum PSA reduction,[4],88.48%
same,Deaths,"[5]; during the study, 15 patients",No deaths were reported
same,Number of SAEs considered related to the study treatment,[5]; in vivo,nine
same,Patients with acute pancreatitis (Grades 2 and 3) or pancreatitis (Grade 1),[5]; in vivo,three
same,Patients with pancreatic-related AEs,[5]; in vivo,ten
same,Serious AEs (SAEs) in Cycle 1,[5]; in vivo,Neither DLTs nor serious AEs (SAEs) were reported
same,TEAEs associated with adrenal insufficiency,[5]; in vivo,No TEAE associated with adrenal insufficiency was reported
same,Treatment-related SAEs in the 200- and 300-mg BID cohorts,[5]; in vivo,No treatment-related SAE was observed
same,12-lead ECG and echocardiography findings,"[5]; male, human, in vivo",No clinically significant abnormal 12-lead ECG and echocardiography findings were observed
same,Abnormalities in hematologic test or urinalysis,"[5]; male, human, in vivo",No Grade 3 or higher abnormalities were observed
same,Incidence of constipation (AE),"[5]; male, human, in vivo",33%
same,Incidence of hyperamylasemia (AE),"[5]; male, human, in vivo",40%
same,Incidence of hyperlipasemia (AE),"[5]; male, human, in vivo",47%
same,Mineralocorticoid-related TEAE: hypertension,"[5]; male, human, in vivo",4 n
same,Mineralocorticoid-related TEAE: hypokalemia,"[5]; male, human, in vivo",3 n
same,Patients who experienced SAEs,"[5]; male, human, in vivo",60%
same,Patients with at least 1 TEAE,"[5]; male, human, in vivo",100%
same,Patients with at least 1 treatment-related AE,"[5]; male, human, in vivo",93%
same,TEAE subject incidence: Abdominal pain upper,"[5]; male, human, in vivo",2 (13) n (%)
same,TEAE subject incidence: Blood creatine phosphokinase increased,"[5]; male, human, in vivo",2 (13) n (%)
same,TEAE subject incidence: Constipation,"[5]; male, human, in vivo",5 (33) n (%)
same,TEAE subject incidence: Contusion,"[5]; male, human, in vivo",2 (13) n (%)
same,TEAE subject incidence: Dysgeusia,"[5]; male, human, in vivo",4 (27) n (%)
same,TEAE subject incidence: Fall,"[5]; male, human, in vivo",2 (13) n (%)
same,TEAE subject incidence: Hepatic function abnormal,"[5]; male, human, in vivo",4 (27) n (%)
same,TEAE subject incidence: Insomnia,"[5]; male, human, in vivo",2 (13) n (%)
same,TEAE subject incidence: Malaise,"[5]; male, human, in vivo",4 (27) n (%)
same,TEAE subject incidence: Nasopharyngitis,"[5]; male, human, in vivo",3 (20) n (%)
same,TEAE subject incidence: Nausea,"[5]; male, human, in vivo",3 (20) n (%)
same,TEAE subject incidence: Rash,"[5]; male, human, in vivo",3 (20) n (%)
same,TEAE subject incidence: Vomiting,"[5]; male, human, in vivo",2 (13) n (%)
same,Total number of SAEs,"[5]; male, human, in vivo",14 SAEs
same,Effect on serum androgen levels in vivo,[6],reduced serum androgen levels
same,Serum DHEA-S,"[7]; Cycle 1 Day 8, 200 mg BID (N = 3), screening 114.7 (8.96)",25.0 (7.21) μg/dL
same,Serum DHEA-S,"[7]; Cycle 1 Day 8, 300 mg BID (N = 3), screening 146.7 (79.83)",23.3 (14.57) μg/dL
same,Serum DHEA-S,"[7]; Cycle 1 Day 8, 300 mg BID + prednisolone (N = 3), screening 136.0 (52.68)",6.3 (4.16) μg/dL
same,Serum DHEA-S,"[7]; Cycle 1 Day 8, 400 mg BID (N = 3), screening 60.3 (8.50)",9.3 (0.58) μg/dL
same,Serum DHEA-S,"[7]; Cycle 1 Day 8, 400 mg BID + prednisolone (N = 3), screening 40.3 (7.57)",2.3 (0.58) μg/dL
same,Serum DHEA-S,"[7]; Cycle 2 Day 1, 200 mg BID (N = 3), screening 114.7 (8.96)",30.0 (9.64) μg/dL
same,Serum DHEA-S,"[7]; Cycle 2 Day 1, 300 mg BID (N = 3), screening 146.7 (79.83)",24.3 (11.93) μg/dL
same,Serum DHEA-S,"[7]; Cycle 2 Day 1, 300 mg BID + prednisolone (N = 3), screening 136.0 (52.68)",2.3 (0.58) μg/dL
same,Serum DHEA-S,"[7]; Cycle 2 Day 1, 400 mg BID (N = 3), screening 60.3 (8.50)",19.3 (16.29) μg/dL
same,Serum DHEA-S,"[7]; Cycle 2 Day 1, 400 mg BID + prednisolone (N = 3), screening 40.3 (7.57)",2.0 (0.00) μg/dL
same,Suppression of serum DHEA-S,[7]; Day 8,suppressed
same,Serum testosterone,"[8]; Cycle 1 Day 8, 200 mg BID (N = 3), screening 0.153 (0.0611)",0.050 (0.0000) ng/mL
same,Serum testosterone,"[8]; Cycle 1 Day 8, 300 mg BID (N = 3), screening 0.123 (0.0702)",0.030 (0.0000) ng/mL
same,Serum testosterone,"[8]; Cycle 1 Day 8, 300 mg BID + prednisolone (N = 3), screening 0.127 (0.0473)",0.030 (0.0000) ng/mL
same,Serum testosterone,"[8]; Cycle 1 Day 8, 400 mg BID (N = 3), screening 0.057 (0.0115)",0.050 (0.0000) ng/mL
same,Serum testosterone,"[8]; Cycle 1 Day 8, 400 mg BID + prednisolone (N = 3), screening 0.053 (0.0058)",0.043 (0.0115) ng/mL
same,Serum testosterone,"[8]; Cycle 2 Day 1, 200 mg BID (N = 3), screening 0.153 (0.0611)",0.050 (0.0000) ng/mL
same,Serum testosterone,"[8]; Cycle 2 Day 1, 300 mg BID (N = 3), screening 0.123 (0.0702)",0.030 (0.0000) ng/mL
same,Serum testosterone,"[8]; Cycle 2 Day 1, 300 mg BID + prednisolone (N = 3), screening 0.127 (0.0473)",0.030 (0.0000) ng/mL
same,Serum testosterone,"[8]; Cycle 2 Day 1, 400 mg BID (N = 3), screening 0.057 (0.0115)",0.050 (0.0000) ng/mL
same,Serum testosterone,"[8]; Cycle 2 Day 1, 400 mg BID + prednisolone (N = 3), screening 0.053 (0.0058)",0.037 (0.0115) ng/mL
same,Suppression of serum testosterone,"[8]; by 1 week after initiation (Day 8), across all cohorts",rapidly suppressed below the lower limit of quantification; also recorded: rapidly suppressed to the LLOQ or lower
